In ChEMBL document CHEMBL3124883, “Halting HCV Replication with NS5A Inhibitors and NS5B Polymerase Inhibitors: Effective New Treatments of HCV Infection” (ACS Med Chem Lett, 2014):
Active and inactive are the calls of the source. The calls are words filed in the database; no cut-off is given here.

The compounds below were run on Hepatitis C virus (assay: Antiviral activity against HCV infected in human HuH7 cells assessed as inhibition of RNA replication after 72 hrs by luciferase reporter gene assay). Settings: Hepacivirus hominis; Huh-7.
Assay type: functional, organism-based
In the case of Cc1c(-c2ccccn2)n(C2CCCC2)c2ccc(C(=O)NC3(c4nc5cc(/C=C/C(=O)O)ccc5n4C)CCC3)cc12, the inhibition is reported as “Active”. With Cn1c(-c2cnccn2)c(C2CCCC2)c2ccc(C(=O)NC3(c4nc5ccc(/C=C/C(=O)O)cc5n4C4CCC4)CCCC3)cc21 the inhibition was “Active”. In the case of Cn1c(C2(NC(=O)c3ccc4c(C5CCCC5)c(-c5ccccn5)n(C)c4c3)CCC2)nc2cc(/C=C/C(=O)O)ccc21, the inhibition is reported as “Active”. With C/C(=C\c1ccc2nc(C3(NC(=O)c4ccc5c(C6CCCC6)c(-c6cccc7cc(C)[nH]c67)n(C)c5c4)CCC3)n(C)c2c1)C(=O)O the inhibition was “Active”.

Each compound was assayed on Hepatitis C virus (assay: Antiviral activity against HCV genotype 1b infected in human HuH7 cells assessed as total cellular RNA after 5 days by RT-PCR analysis). Settings: Huh-7, 120 h.
Assay type: functional, organism-based, Hepacivirus hominis
Work on C#Cc1ccc(-c2cn(-c3ccc(-c4cnc(-c5cnc([C@@H]6CCCN6C(=O)[C@@H](NC(=O)OC)C(C)C)[nH]5)[nH]4)cc3)nn2)cc1 yielded an EC50 of 1 nM. COC(=O)N[C@H](C(=O)N1C[C@@H](SC)C[C@H]1c1ncc(-c2ccc(-c3ccc(-c4cnc([C@@H]5C[C@H](SC)CN5C(=O)[C@@H](NC(=O)OC)c5ccccc5)[nH]4)cc3)cc2)[nH]1)c1ccccc1 gave an EC50 of less than 1 nM. COC(=O)N[C@@H](CC(C)C)C(=O)N1CCC[C@H]1c1ncc(-c2ccc(-c3ccccc3)cc2)[nH]1 gave an EC50 of 100 nM.
